The values that follow come from US4948782A, “A method of promoting the growth of domestic animals with erythromycin derivative containing composition” (Kitasato Kenkyusho, priority 1987, dated 1990).

Structures are written as SMILES. ≈ marks a conversion by molar mass, not a printed value. Where two headings read alike, the source gives them in different places.

Format in all cases: cell-based
The subject of one assay is Bacillus cereus IFO 3001. The assay is described as follows: MIC, Bacillus cereus IFO 3001 (BC). The note with it: for MIC: Bacillus cereus.
In the next assay the test system is Bacillus subtilis. The assay is described as follows: MIC, Bacillus subtilis (BS). The note with it: for MIC: read-out: MIC BS.
In the next assay the test system is Escherichia coli NIHJ. The assay is described as follows: MIC, Escherichia coli NIHJ (EC).
The subject of assay [1] is Staphylococcus aureus FDA 209P. The assay is described as follows: MIC, Staphylococcus aureus FDA 209P (SA(2)). The following applies: Staphylococcus aureus, FDA209P, read-out: MIC SA (2). The source says:
(§1) The minimum inhibitory concentrations (MIC: mcg/ml) of the erythromycin derivatives of the present invention and the control erythromycin derivative (*) as the known growth promoting agent on typical test bacteria are shown in the following Tables 1 to 5.
SA(2): Staphylococcus aureus FDA 209P

For assay [2], the system named is Klebsiella pneumoniae ATCC 10031. The assay is described as follows: MIC, Klebsiella pneumoniae ATCC 10031 (KP).
Assay [3] has as its system Staphylococcus aureus ATCC 6538P. The assay is described as follows: MIC, Staphylococcus aureus ATCC 6538P (SA(1)). The note with it: for MIC: Staphylococcus aureus, ATCC6538P, read-out: MIC SA (1).
From the text: as §1
SA(1): Staphylococcus aureus ATCC 6538P

Setting [4] is: IFO3001, Bacillus cereus IFO 3001, read-out: MIC BC.
Setting [5] is: ATCC10031, Klebsiella pneumoniae ATCC 10031, read-out: MIC KP.
[6] abbreviates: Staphylococcus aureus ATCC 6538P.

By MIC is commonly meant the least concentration at which growth counts as inhibited. As for `CC[C@H]1OC(=O)[C@H](C)[C@@H](O[C@H]2C[C@@](C)(OC)[C@@H](O)[C@H](C)O2)[C@H](C)[C@@H](O[C@@H]2O[C@H](C)C[C@H](N(C)C)[C@H]2O)[C@@]2(C)CC(C)C(O2)[C@H](C)[C@@H](O)[C@]1(C)O` (stereo partly drawn) [*1, reference compound], the MIC was 12.5 mg/L (≈ 17.4 µM) in the assay on Bacillus cereus IFO 3001 (setting [4]); 6.25 mg/L (≈ 8.71 µM) with Bacillus subtilis; greater than 100 mg/L in the assay with Escherichia coli NIHJ; 12.5 mg/L (≈ 17.4 µM) in assay [1] (Staphylococcus aureus FDA 209P); greater than 100 mg/L in assay [2] (setting [5]); 12.5 mg/L (≈ 17.4 µM) in assay [3] (setting [6]).

In the case of `CC[C@H]1OC(=O)[C@H](C)[C@@H](O[C@H]2C[C@@](C)(OC)[C@@H](O)[C@H](C)O2)[C@H](C)[C@@H](O[C@@H]2O[C@H](C)C[C@H](N(C)C)[C@H]2O)[C@@]2(C)CC(C)C3(O[C@@]1(C)[C@H](O)[C@H]3C)O2` (stereo partly drawn) [*2 (EM202), Anhydroerythromycin A, reference compound], the MIC in assay [1] (Staphylococcus aureus FDA 209P) and in assay [3] (setting [6]) was 12.5 mg/L (≈ 17.5 µM) throughout.

Take `CC[C@H]1OC(=O)[C@H](C)[C@@H](O[C@H]2C[C@@](C)(OC)[C@@H](O)[C@H](C)O2)[C@H](C)[C@@H](O[C@@H]2O[C@H](C)C[C@H](N(C)C)[C@H]2O)[C@](C)(O)C[C@@H](C)C(=O)[C@H](C)[C@@H](O)[C@]1(C)O` [*3, Erythromycin A, reference compound]: the minimal inhibitory concentration (MIC) was found to be 0.2 mg/L (≈ 0.273 µM) in the assay on Bacillus cereus IFO 3001 (IFO3001, read-out: MIC BC); 0.2 mg/L (≈ 0.273 µM) in the assay on Bacillus subtilis; 25 mg/L (≈ 34.1 µM) against Escherichia coli NIHJ; 0.4 mg/L (≈ 0.545 µM) in assay [1]; 6.25 mg/L (≈ 8.52 µM) in assay [2] (Klebsiella pneumoniae, ATCC10031, read-out: MIC KP); 0.2 mg/L (≈ 0.273 µM) in assay [3].

On to `CCC1OC(=O)C(C)C(OC2CC(C)(OC)C(O)C(C)O2)C(C)C(OC2OC(C)CC([N+](C)(C)C)C2O)C2(C)CC(C)=C(O2)C(C)C(O)C1(C)O` (stereo not drawn) [Compound 1], for which the MIC (in the assay with Bacillus cereus IFO 3001 (setting [4]); in the assay on Bacillus subtilis; against Escherichia coli NIHJ; in assay [1] (Staphylococcus aureus FDA 209P); in assay [2] (setting [5]); in assay [3] (setting [6])) was greater than 100 mg/L throughout.

As to `CCC1OC(=O)C(C)C(OC2CC(C)(OC)C(O)C(C)O2)C(C)C(OC2OC(C)CC([N+](C)(C)C)C2O)C2(C)CC(C)=C(O2)C(C)C(OC(C)=O)C1(C)OC(C)=O` (stereo not drawn) [Compound 2], the MIC is 100 mg/L with Bacillus cereus IFO 3001 (setting [4]); 100 mg/L in the assay with Bacillus subtilis; greater than 100 mg/L against Escherichia coli NIHJ; 100 mg/L in assay [1] (Staphylococcus aureus FDA 209P); greater than 100 mg/L in assay [2] (setting [5]); 100 mg/L in assay [3] (setting [6]).

On to `CCC1OC(=O)C(C)C(OC2CC(C)(OC)C(O)C(C)O2)C(C)C(OC2OC(C)CC([N+](C)(C)C)C2O)C2(C)CC(C)=C(O2)C(C)C(OS(C)(=O)=O)C1(C)O` (stereo not drawn) [Compound 3], for which the MIC (in the assay on Bacillus cereus IFO 3001 (setting [4]); in the assay on Bacillus subtilis; against Escherichia coli NIHJ; in assay [1] (Staphylococcus aureus FDA 209P); in assay [2] (setting [5]); in assay [3] (setting [6])) was greater than 100 mg/L each time.

As for `CCC1OC(=O)C(C)C(OC2CC(C)(OC)C(OC=O)C(C)O2)C(C)C(OC2OC(C)CC([N+](C)(C)C)C2O)C2(C)CC(C)=C(O2)C(C)C(OS(C)(=O)=O)C1(C)O` (stereo not drawn) [Compound 4], the MIC (with Bacillus cereus IFO 3001 (setting [4]); in the assay on Bacillus subtilis; with Escherichia coli NIHJ; in assay [1] (Staphylococcus aureus FDA 209P); in assay [2] (setting [5]); in assay [3] (setting [6])) was greater than 100 mg/L each time.

Regarding `CCC1OC(=O)C(C)C(OC2CC(C)(OC)C(O)C(C)O2)C(C)C(OC2OC(C)CC([N+](C)(C)CC)C2O)C2(C)CC(C)=C(O2)C(C)C(O)C1(C)O` (stereo not drawn) [Compound 5], the MIC (in the assay on Bacillus cereus IFO 3001 (setting [4]); in the assay on Bacillus subtilis; against Escherichia coli NIHJ; in assay [1] (Staphylococcus aureus FDA 209P); in assay [2] (setting [5]); in assay [3] (setting [6])) was greater than 100 mg/L in each case.

Regarding `CCC[N+](C)(C)C1CC(C)OC(OC2C(C)C(OC3CC(C)(OC)C(O)C(C)O3)C(C)C(=O)OC(CC)C(C)(O)C(O)C(C)C3=C(C)CC2(C)O3)C1O` (stereo not drawn) [Compound 6], the MIC (in the assay on Bacillus cereus IFO 3001 (setting [4]); in the assay with Bacillus subtilis; in the assay on Escherichia coli NIHJ; in assay [1] (Staphylococcus aureus FDA 209P); in assay [2] (setting [5]); in assay [3] (setting [6])) was greater than 100 mg/L each time.

`CCC1OC(=O)C(C)C(OC2CC(C)(OC)C(O)C(C)O2)C(C)C(OC2OC(C)CC([N+](C)(C)C)C2OC(C)=O)C2(C)CC(C)=C(O2)C(C)C(O)C1(C)O` (stereo not drawn) [Compound 7]: the MIC in the assay on Bacillus cereus IFO 3001 (setting [4]) was greater than 100 mg/L; in the assay with Bacillus subtilis, greater than 100 mg/L; against Escherichia coli NIHJ, greater than 100 mg/L; in assay [1] (Staphylococcus aureus FDA 209P), greater than 100 mg/L; in assay [2] (setting [5]) it was greater than 100 mg/L; in assay [3] (setting [6]), 100 mg/L.

With `CCC1OC(=O)C(C)C(OC2CC(C)(OC)C(O)C(C)O2)C(C)C(OC2OC(C)CC(NC)C2O)C2(C)CC(C)=C(O2)C(C)C(O)C1(C)O` (stereo not drawn) [Compound 8], the minimum inhibitory concentration (MIC) (with Bacillus cereus IFO 3001 (setting [4]); in the assay with Bacillus subtilis; in the assay with Escherichia coli NIHJ; in assay [1] (Staphylococcus aureus FDA 209P); in assay [2] (setting [5]); in assay [3] (setting [6])) was greater than 100 mg/L each time.

With `CCC1OC(=O)C(C)C(OC2CC(C)(OC)C(O)C(C)O2)C(C)C(OC2OC(C)CC(N)C2O)C2(C)CC(C)=C(O2)C(C)C(O)C1(C)O` (stereo not drawn) [Compound 9], the MIC (in the assay with Bacillus cereus IFO 3001 (setting [4]); in the assay with Bacillus subtilis; in the assay with Escherichia coli NIHJ; in assay [1] (Staphylococcus aureus FDA 209P); in assay [2] (setting [5]); in assay [3] (setting [6])) was greater than 100 mg/L in each case.

As for `CCC1OC(=O)C(C)C(OC2CC(C)(OC)C(O)C(C)O2)C(C)C(OC2OC(C)CC(N(C)CC)C2O)C2(C)CC(C)=C(O2)C(C)C(O)C1(C)O` (stereo not drawn) [Compound 10], the MIC (in the assay with Bacillus cereus IFO 3001 (setting [4]); in the assay with Bacillus subtilis; against Escherichia coli NIHJ; in assay [1] (Staphylococcus aureus FDA 209P); in assay [2] (setting [5]); in assay [3] (setting [6])) was greater than 100 mg/L in each case.

Take `CCCCN(C)C1CC(C)OC(OC2C(C)C(OC3CC(C)(OC)C(O)C(C)O3)C(C)C(=O)OC(CC)C(C)(O)C(O)C(C)C3=C(C)CC2(C)O3)C1O` (stereo not drawn) [Compound 11]: the MIC (in the assay on Bacillus cereus IFO 3001 (setting [4]); in the assay with Bacillus subtilis; in the assay with Escherichia coli NIHJ; in assay [1] (Staphylococcus aureus FDA 209P); in assay [2] (setting [5]); in assay [3] (setting [6])) was greater than 100 mg/L in each case.

On to `CCC1OC(=O)C(C)C(OC2CC(C)(OC)C(O)C(C)O2)C(C)C(OC2OC(C)CC([N+](C)(CC)CC)C2O)C2(C)CC(C)=C(O2)C(C)C(O)C1(C)O` (stereo not drawn) [Compound 12], for which the MIC (in the assay on Bacillus cereus IFO 3001 (setting [4]); in the assay on Bacillus subtilis; in the assay with Escherichia coli NIHJ; in assay [1] (Staphylococcus aureus FDA 209P); in assay [2] (setting [5]); in assay [3] (setting [6])) was greater than 100 mg/L in each case.

Consider `CCC1OC(=O)C(C)C(OC2CC(C)(OC)C(O)C(C)O2)C(C)C(OC2OC(C)CC([N+](C)(C)CC)C2O)C2(C)CC(C)=C(O2)C(C)C(O)C1(C)O` (stereo not drawn) [Compound 19], for which the “MIC BC” value in the assay on Bacillus cereus IFO 3001 (Bacillus cereus IFO 3001) is greater than 100 mg/L. For the same compound, the “MIC BS” value in the assay with Bacillus subtilis was greater than 100 mg/L. Further, the “MIC EC” value with Escherichia coli NIHJ is greater than 100 mg/L. In assay [2] (Klebsiella pneumoniae ATCC 10031), the “MIC KP” value is greater than 100 mg/L. Besides, the “MIC SA (1)” value in assay [3] (setting [6]) is greater than 100 mg/L.

`CCC1OC(=O)C(C)C(OC2CC(C)(OC)C(O)C(C)O2)C(C)C(OC2OC(C)CC([N+](C)(C)CC3CC3)C2O)C2(C)CC(C)=C(O2)C(C)C(O)C1(C)O` (stereo not drawn) [Compound 50]: the minimum inhibitory concentration (MIC) in the assay with Bacillus subtilis is greater than 100 mg/L; in the assay on Escherichia coli NIHJ it was greater than 100 mg/L; in assay [1] (Staphylococcus aureus FDA 209P) it was greater than 100 mg/L; in assay [2] (setting [5]) it was greater than 100 mg/L; in assay [3] (setting [6]), 100 mg/L.
